Patent US11053235B2, “Substituted 1,4-dihydropyrimidines for the treatment of HBV infection or HBV-induced diseases” (Janssen Sciences Ireland Unlimited Company, priority 2018, dated 2021)

Columns and labels:
HBV = test: Anti-viral assay in HepG2.2.15 cells: HBV inhibitory activity (HBV DNA in culture medium by q-PCR); assay type: cell-based; conditions: Hepatitis B virus, HepG2.2.15, 144 h, HepG2.2.15 cells, 6 days treatment, HBV DNA in culture medium by q-PCR, highest concentration 10 uM; read-out: EC50
Summary of the method: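 HepG2.2.15 cells seeded at 40,000/well in 2% FBS medium, dosed next day for 6 days (medium refreshed once midway); 8-point 3-fold dilutions from 10 uM top. HBV DNA in culture medium extracted and quantified by q-PCR; EC50 calculated from dose-response.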

[1] = Cytotoxicity determination in HepG2.2.15 cells (CCK-8); assay type: cell-based; conditions: human, 6 days treatment, CCK-8, highest concentration 100 uM
Summary of the method: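 HepG2.2.15 cells seeded at 5,000 cells/well in 2% FBS medium and exposed to compounds for 6 days (medium refreshed once), 8 three-fold dilutions from 100 uM. Viability read by CCK-8 after 2.5 h at 37 °C, absorbance 450 nm with 630 nm reference; CC50 calculated.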

COC(=O)C1=C(C2CCN(c3ncc(CC(=O)O)cn3)CC2)NC(c2nccs2)=NC1c1cccc(F)c1C (single isomer, unassigned) [II-6-B, 2-(2-(4-(6-(3-Fluoro-2-methylphenyl)-5-(methoxycarbonyl)-2-(thiazol-2-yl)-3,6-dihydropyrimidin-4-yl)piperidin-1-yl)pyrimidin-5-yl)acetic Acid]
EC50 (HBV): 0.0057 µM
CC50 at 6 days [1]: 5.42 µM

COC(=O)C1=C(C2CCN(c3ncc(C)c(C(=O)O)n3)CC2)NC(c2nccs2)=NC1c1ccc(F)cc1C (single isomer, unassigned) [II-7-B, 2-(4-(6-(4-fluoro-2-methylphenyl)-5-(methoxycarbonyl)-2-(thiazol-2-yl)-3,6-dihydropyrimidin-4-yl)piperidin-1-yl)-5-methylpyrimidine-4-carboxylic Acid]
EC50 (HBV): 0.041 µM
CC50 at 6 days [1]: 28.4 µM

COC(=O)C1=C(C2CCN(c3ncc(C)c(C(=O)O)n3)CC2)NC(c2nccs2)=NC1c1cccc(F)c1Cl (single isomer, unassigned) [II-8-B, 2-(4-(6-(2-Chloro-3-fluorophenyl)-5-(methoxycarbonyl)-2-(thiazol-2-yl)-3,6-dihydropyrimidin-4-yl)piperidin-1-yl)-5-methylpyrimidine-4-carboxylic Acid]
EC50 (HBV): 0.0081 µM
CC50 at 6 days [1]: 19 µM

COC(=O)C1=C(C2CCN(c3ncc(CC(=O)O)cn3)CC2)NC(c2nccs2)=NC1c1cccc(F)c1Cl (single isomer, unassigned) [II-9-B, 2-(2-(4-(6-(2-Chloro-3-fluorophenyl)-5-(methoxycarbonyl)-2-(thiazol-2-yl)-3,6-dihydropyrimidin-4-yl)piperidin-1-yl)pyrimidin-5-yl)acetic Acid]
EC50 (HBV): < 0.0046 µM
CC50 at 6 days [1]: 4.9 µM

COC(=O)C1=C(C2CCN(c3ncc(C(=O)O)s3)CC2)NC(c2nccs2)=NC1c1cccc(F)c1Cl (single isomer, unassigned) [II-10-B, 2-(4-(6-(2-Chloro-3-fluorophenyl)-5-(methoxycarbonyl)-2-(thiazol-2-yl)-3,6-dihydropyrimidin-4-yl)piperidin-1-yl)thiazole-5-carboxylic Acid]
EC50 (HBV): 0.0092 µM
CC50 at 6 days [1]: 17.2 µM

COC(=O)C1=C(C2CCN(C(=O)c3cn[nH]c3)CC2)NC(c2nccs2)=NC1c1ccc(F)cc1Cl (single isomer, unassigned) [II-11-X, Methyl 6-(1-(1H-pyrazole-4-carbonyl)piperidin-4-yl)-4-(2-chloro-4-fluorophenyl)-2-(thiazol-2-yl)-1,4-dihydropyrimidine-5-carboxylate]
EC50 (HBV): 0.058 µM
CC50 at 6 days [1]: 16.2 µM

COC(=O)C1=C(C2CCN(C(=O)c3cnn(C)c3)CC2)NC(c2nccs2)=NC1c1ccc(F)cc1Cl (single isomer, unassigned) [II-12-B, Methyl 4-(2-chloro-4-fluorophenyl)-6-(1-(1-methyl-1H-pyrazole-4-carbonyl)piperidin-4-yl)-2-(thiazol-2-yl)-1,4-dihydropyrimidine-5-carboxylate]
EC50 (HBV): 0.066 µM
CC50 at 6 days [1]: 25.5 µM

COC(=O)C1=C(C2CCN(c3nccc(CC(=O)O)n3)CC2)NC(c2nccs2)=NC1c1ccc(F)cc1Cl (single isomer, unassigned) [II-13-A, 2-(2-(4-(6-(2-chloro-4-fluorophenyl)-5-(methoxycarbonyl)-2-(thiazol-2-yl)-3,6-dihydropyrimidin-4-yl)piperidin-1-yl)pyrimidin-4-yl)acetate]
EC50 (HBV): 0.19 µM
CC50 at 6 days [1]: 24.4 µM

COC(=O)C1=C(C2CCN(c3ncc(C)c(C(=O)O)n3)CC2)NC(c2nccs2)=NC1c1ccc(F)cc1Cl (single isomer, unassigned) [II-14-A, 2-(4-(6-(2-Chloro-4-fluorophenyl)-5-(methoxycarbonyl)-2-(thiazol-2-yl)-3,6-dihydropyrimidin-4-yl)piperidin-1-yl)-5-methylpyrimidine-4-carboxylic Acid]
EC50 (HBV): 0.0081 µM
CC50 at 6 days [1]: 32.1 µM

COC(=O)C1=C(C2CCN(c3ncc(CC(=O)O)cn3)CC2)NC(c2nccs2)=NC1c1ccc(F)cc1Cl (single isomer, unassigned) [II-15-A, 2-(2-(4-(6-(2-Chloro-4-fluorophenyl)-5-(methoxycarbonyl)-2-(thiazol-2-yl)-3,6-dihydropyrimidin-4-yl)piperidin-1-yl)pyrimidin-5-yl)acetic Acid]
EC50 (HBV): 0.0055 µM
CC50 at 6 days [1]: 14 µM

COC(=O)C1=C(C2CCN(c3ncc(C(=O)O)c(C)n3)CC2)NC(c2nccs2)=NC1c1ccc(F)cc1Cl (single isomer, unassigned) [II-16-B, 2-(4-(6-(2-Chloro-4-fluorophenyl)-5-(methoxycarbonyl)-2-(thiazol-2-yl)-3,6-dihydropyrimidin-4-yl)piperidin-1-yl)-4-methylpyrimidine-5-carboxylic Acid]
EC50 (HBV): 0.0069 µM
CC50 at 6 days [1]: 7.48 µM

COC(=O)C1=C(C2CCN(c3ncc(C(=O)O)cn3)CC2)NC(c2nccs2)=NC1c1ccc(F)cc1Cl (single isomer, unassigned) [II-17-B, 2-(4-(6-(2-chloro-4-fluorophenyl)-5-(methoxycarbonyl)-2-(thiazol-2-yl)-3,6-dihydropyrimidin-4-yl)piperidin-1-yl)pyrimidine-5-carboxylic Acid]
EC50 (HBV): 0.014 µM
CC50 at 6 days [1]: > 100 µM

COC(=O)C1=C(C2CCN(c3nc(C(=O)O)co3)CC2)NC(c2nccs2)=NC1c1ccc(F)cc1Cl (single isomer, unassigned) [II-18-B, 2-(4-(6-(2-Chloro-4-fluorophenyl)-5-(methoxycarbonyl)-2-(thiazol-2-yl)-3,6-dihydropyrimidin-4-yl)piperidin-1-yl)oxazole-4-carboxylic Acid]
EC50 (HBV): 0.089 µM
CC50 at 6 days [1]: 70 µM

COC(=O)C1=C(C2CCN(c3ncc(C(=O)O)s3)CC2)NC(c2nccs2)=NC1c1ccc(F)cc1Cl (single isomer, unassigned) [II-19-A, 2-(4-(6-(2-Chloro-4-fluorophenyl)-5-(methoxycarbonyl)-2-(thiazol-2-yl)-3,6-dihydropyrimidin-4-yl)piperidin-1-yl)thiazole-5-carboxylic Acid]
EC50 (HBV): 0.0064 µM
CC50 at 6 days [1]: 19.3 µM

CCOC(=O)C1=C(C2CCN(c3ncc(C)c(C(=O)O)n3)CC2)NC(c2nccs2)=NC1c1ccc(F)cc1Cl (single isomer, unassigned) [II-20-B, 2-(4-(6-(2-Chloro-4-fluorophenyl)-5-(ethoxycarbonyl)-2-(thiazol-2-yl)-3,6-dihydropyrimidin-4-yl)piperidin-1-yl)-5-methylpyrimidine-4-carboxylic Acid]
EC50 (HBV): 0.015 µM
CC50 at 6 days [1]: 16.8 µM

CCOC(=O)C1=C(C2CCN(c3ncc(CC(=O)O)cn3)CC2)NC(c2nccs2)=NC1c1ccc(F)cc1Cl (single isomer, unassigned) [II-21-B, 2-(2-(4-(6-(2-Chloro-4-fluorophenyl)-5-(ethoxycarbonyl)-2-(thiazol-2-yl)-3,6-dihydropyrimidin-4-yl)piperidin-1-yl)pyrimidin-5-yl)acetic Acid]
EC50 (HBV): 0.0062 µM
CC50 at 6 days [1]: 7.11 µM

CCOC(=O)C1=C(C2CCN(c3ncc(C)c(C(=O)O)n3)CC2)NC(c2nccs2)=NC1c1cccc(F)c1Cl (single isomer, unassigned) [II-22-B, 2-(4-(6-(2-Chloro-3-fluorophenyl)-5-(ethoxycarbonyl)-2-(thiazol-2-yl)-3,6-dihydropyrimidin-4-yl)piperidin-1-yl)-5-methylpyrimidine-4-carboxylic Acid]
EC50 (HBV): 0.015 µM
CC50 at 6 days [1]: 11.2 µM

CCOC(=O)C1=C(C2CCN(c3ncc(CC(=O)O)cn3)CC2)NC(c2nccs2)=NC1c1cccc(F)c1Cl (single isomer, unassigned) [II-23-B, 2-(2-(4-(6-(2-Chloro-3-fluorophenyl)-5-(ethoxycarbonyl)-2-(thiazol-2-yl)-3,6-dihydropyrimidin-4-yl)piperidin-1-yl)pyrimidin-5-yl)acetic Acid]
EC50 (HBV): < 0.0046 µM
CC50 at 6 days [1]: 3.88 µM

COC(=O)C1=C(C2CCN(c3ncc([C@]4(O)C[C@@H](C(=O)O)C4)cn3)CC2)NC(c2nccs2)=NC1c1ccc(F)c(F)c1Cl (single isomer, unassigned) [II-24-B, (cis)-3-(2-(4-(6-(2-chloro-3,4-difluorophenyl)-5-(methoxycarbonyl)-2-(thiazol-2-yl)-3,6-dihydropyrimidin-4-yl)piperidin-1-yl)pyrimidin-5-yl)-3-hydroxycyclobutanecarboxylic Acid]
EC50 (HBV): < 0.0046 µM
CC50 at 6 days [1]: 11 µM

COC(=O)C1=C(C2CCN(c3ncc(C(=O)O)o3)CC2)NC(c2nccs2)=NC1c1ccc(F)c(F)c1Cl (single isomer, unassigned) [II-25-B, 2-(4-(6-(2-Chloro-3,4-difluorophenyl)-5-(methoxycarbonyl)-2-(thiazol-2-yl)-3,6-dihydropyrimidin-4-yl)piperidin-1-yl)oxazole-5-carboxylic Acid]
EC50 (HBV): 0.054 µM
CC50 at 6 days [1]: 18.1 µM

COC(=O)C1=C(C2CCN(c3ncc(Cl)c(C(=O)O)n3)CC2)NC(c2nccs2)=NC1c1ccc(F)c(F)c1Cl (single isomer, unassigned) [II-26-B, 5-Chloro-2-(4-(6-(2-chloro-3,4-difluorophenyl)-5-(methoxycarbonyl)-2-(thiazol-2-yl)-3,6-dihydropyrimidin-4-yl)piperidin-1-yl)pyrimidine-4-carboxylic Acid]
EC50 (HBV): 0.045 µM
CC50 at 6 days [1]: 11.1 µM

COC(=O)C1=C(C2CCN(c3ncc(C)c(C(=O)O)n3)CC2)NC(c2nccs2)=NC1c1ccc(F)c(F)c1Cl (single isomer, unassigned) [II-27-B, 2-(4-(6-(2-Chloro-3,4-difluorophenyl)-5-(methoxycarbonyl)-2-(thiazol-2-yl)-3,6-dihydropyrimidin-4-yl)piperidin-1-yl)-5-methylpyrimidine-4-carboxylic Acid]
EC50 (HBV): 0.0055 µM
CC50 at 6 days [1]: 20.2 µM
